These results are taken from ChEMBL document CHEMBL6071133, “Discovery of novel penetrating peptides able to target human leukemia and lymphoma for enhanced PROTAC delivery” (Eur J Med Chem, 2024).

Activity calls are given as the source filed them. The calls are words filed in the database; no cut-off is given here. Peptide text beside a SMILES is read from it.

A short description of series [1]: Drug uptake in human CCRF-CEM cells assessed as membrane penetration by measuring increase in fluorescence intensity at 5 umol/L incubated for 2 hrs by flow cytometry relative to C9C. It is filed as ADME, cell-based. The settings on record: 5 µM, dose 5 µmol/L. A general note: Flow cytometry measures light scatter and fluorescence of single cells or particles in a stream.

A short description of series [2]: Drug uptake in human CCRF-CEM cells assessed as increase in fluorescence intensity at 1 to 10 uM incubated for 2 hrs by flow cytometry. Type of series: ADME, cell-based. The settings on record: dose 1-10 µM.
A short description of series [3]: Drug uptake in human CCRF-CEM cells assessed as increase in fluorescence intensity at 5 umol/L measured for 60 to 240 mins by flow cytometry. The note with it: 5 µM, TDE = time-dependent effect, time 60-240 min, dose 5 µmol/L. Type of series: ADME, cell-based.
A short description of series [4]: Drug uptake in human CCRF-CEM cells assessed as increase in fluorescence intensity at 1 to 10 umol/L incubated for 2 hrs by cell imaging based fluorescence microscopic analysis. The note with it: dose 1-10 µmol/L. It is filed as ADME.
Series [5] can be described thus: Drug uptake in human THP-1 cells assessed as increase in fluorescence intensity at 10 umol/L incubated for 2 hrs by cell imaging based fluorescence microscopic analysis. Type of series: ADME. The settings on record: thp-1, 2 h, 10 µM, dose 10 µmol/L.
Series [6] is described as follows: Drug uptake in human K562 cells assessed as perinuclear distribution and colocalization with nucleus at 10 umol/L incubated for 2 hrs by confocal laser microscopy. It is filed as ADME, cell-based. The note with it: k562, 2 h, 10 µM, dose 10 µmol/L.
A short description of series [7]: Drug uptake in human KU812 cells assessed as perinuclear distribution and colocalization with nucleus at 10 umol/L incubated for 2 hrs by confocal laser microscopy. Type of series: ADME, cell-based. The note with it: ku812, 2 h, 10 µM, dose 10 µmol/L.
Series [8] can be described thus: Drug uptake in human CCRF-CEM cells assessed as perinuclear distribution and colocalization with nucleus at 10 umol/L incubated for 2 hrs by confocal laser microscopy. It is filed as ADME, cell-based. The settings on record: 10 µM, dose 10 µmol/L.
The nature of series [9]: Drug uptake in human CCRF-CEM cells assessed as increase in fluorescence intensity at 5 umol/L measured for 5 to 60 mins by flow cytometry. Type of series: ADME, cell-based. The settings on record: 5 µM, time 5-60 min, dose 5 µmol/L.
The nature of series [10]: Stability of the compound in fetal bovine serum assessed as parent compound remaining measured after 8 hrs by HPLC-MS analysis. It is filed as ADME, cell-free, Bos taurus. The note with it: cattle, read-out: Stability.
A short description of series [11]: Stability of the compound in fetal bovine serum assessed as parent compound remaining measured after 12 hrs by HPLC-MS analysis. It is filed as ADME, cell-free, Bos taurus. The settings on record: cattle, read-out: Stability.
Series [12] is described as follows: Stability of the compound in fetal bovine serum assessed as parent compound remaining measured after 36 hrs by HPLC-MS analysis. Type of series: ADME, cell-free, Bos taurus. The settings on record: cattle, read-out: Stability.
Series [13] in a line: Cytotoxicity against human K562 cells assessed as cell viability at 0.01 to 100 uM incubated for 48 hrs by MTT assay. It is filed as toxicity, cell-based. The note with it: dose 0.01-100 µM, read-out: Activity. (Tetrazolium dyes change colour on reduction, which living cells bring about.)
Series [14] is described as follows: Cytotoxicity against human KU812 cells assessed as cell viability at 0.01 to 100 uM incubated for 48 hrs by MTT assay. It is filed as toxicity, cell-based. The settings on record: dose 0.01-100 µM, read-out: Activity.
Series [15] can be described thus: Cytotoxicity against human CCRF-CEM cells assessed as cell viability at 0.01 to 100 uM incubated for 48 hrs by MTT assay. The settings on record: dose 0.01-100 µM, read-out: Activity. It is filed as toxicity, cell-based.
Series [16] is described as follows: Cytotoxicity against human THP-1 cells assessed as reduction in cell viability at higher concentrations incubated for 48 hrs by MTT assay. The note with it: read-out: INH. Type of series: toxicity, cell-based.
A short description of series [17]: Increase in membrane permeability of IMA-PROTAC in human K562 cells assessed as potentiation of IMA-PROTAC-induced Bcr-Abl degradation at PROTAC to compound concentration ratio of 1:5 incubated for 48 hrs in presence of 3 umol/L IMA-PROTAC by western blot analysis (reference value: 40%). It is filed as functional.
The subject of series [18] is K562. Description: Increase in membrane permeability of IMA-PROTAC in human K562 cells assessed as potentiation of IMA-PROTAC-induced Bcr-Abl degradation at PROTAC to compound concentration ratio of 1:3 incubated for 48 hrs in presence of 3 umol/L IMA-PROTAC by western blot analysis. It is filed as functional, cell-based. For orientation: Immunoblotting shows a protein as a band on a membrane.

Series [19] deals with K562. As to the kind of experiment: Induction of apoptosis in human K562 cells assessed as viable cells at PROTAC to compound concentration ratio of 1:5 incubated for 48 hrs in presence of 3 umol/L IMA-PROTAC by AnnexinV-FITC/PI staining based flow cytometry (reference value: 99.85%). It is filed as functional.
In series [20] the test system is K562. As to the kind of experiment: Induction of apoptosis in human K562 cells assessed as early apoptotic cells at PROTAC to compound concentration ratio of 1:5 incubated for 48 hrs in presence of 3 umol/L IMA-PROTAC by AnnexinV-FITC/PI staining based flow cytometry (reference value: 0.03%). Type of series: functional.
For series [21], the system named is K562. As to the kind of experiment: Induction of apoptosis in human K562 cells assessed as late apoptotic cells at PROTAC to compound concentration ratio of 1:5 incubated for 48 hrs in presence of 3 umol/L IMA-PROTAC by AnnexinV-FITC/PI staining based flow cytometry (reference value: 0.01%). It is filed as functional.
The subject of series [22] is K562. Description: Induction of apoptosis in human K562 cells assessed as necrotic cells at PROTAC to compound concentration ratio of 1:5 incubated for 48 hrs in presence of 3 umol/L IMA-PROTAC by AnnexinV-FITC/PI staining based flow cytometry (reference value: 0.1%). Type of series: functional.
Series [23] can be described thus: Interaction with IMA-PROTAC assessed as induction of formation of micelle cluster with uniform and distinct spherical morphology by transmission electron microscopy. It is filed as physicochemical.
Series [24] can be described thus: Interaction with IMA-PROTAC assessed as induction of assembly formation by transmission electron microscopy. Type of series: physicochemical.
Series [25] concerns K562. As to the kind of experiment: Increase in membrane permeability of IMA-PROTAC in human K562 cells assessed as potentiation of IMA-PROTAC-induced inhibition of STAT5 phosphorylation at PROTAC to compound concentration ratio of 1:5 incubated for 48 hrs in presence of 3 umol/L IMA-PROTAC by western blot analysis. It is filed as functional, cell-based.

Take `CC(C)C[C@@H]1NC(=O)[C@H](Cc2csc3ccccc23)NC(=O)[C@@H](Cc2ccccc2)NC(=O)[C@H](Cc2ccccc2)NC(=O)[C@H](CCCNC(=N)N)NC(=O)[C@H](CCCCN)NC(=O)[C@H](CCC(=O)O)NC(=O)[C@H](CO)NC(=O)[C@H](CCCNC(=N)N)NC1=O`: the “fold change (FC)” value in [1] was found to be 2.97. The Drug uptake result in series [2] is on record as “Dose-Dependent Effect”; in series [3], “Tde”; in series [4] it was “Active”; in [5], “Active”; in series [6] it was “Active”; in series [7] it was “Active”. The Drug uptake result in series [8] and in series [9] was “Active” throughout.

With `CC(C)C[C@H](NC(=O)[C@H](Cc1c[nH]c2ccccc12)NC(=O)[C@H](Cc1ccc(O)cc1)NC(=O)[C@H](Cc1ccccc1)NC(=O)CNC(=O)[C@@H](N)CS)C(=O)N[C@@H](CCCNC(=N)N)C(=O)N[C@@H](CO)C(=O)N[C@@H](CS)C(=O)O` (H-CGFYWLRSC-OH), the Drug uptake result in series [5] is listed as “Active”. Besides, in series [10], the remaining at 8 h was 100%. The remaining at 12 h in series [11] stood at 80%. In addition, the remaining at 36 h in series [12] was determined as 35%. Further, the viability at 48 h, up to 100 µM in series [13], in [14] and in series [15] was over 75% throughout. Also, the cytotoxicity at 48 h in series [16] is about 50%. In addition, the Activity is reported as 60% in [17]; 86.18% in the series on K562 [19]; 6.26% with K562 [20]; 7.46% in the series with K562 [21]; 0.09% in the series with K562 [22]; “Not Active” in series [23]. In addition, the Activity entry in [24] is given as “Not Active”. The outcome in the series on K562 [18] and with K562 [25] was Active.
